{
  "source": "patent US20230340127A1",
  "about": "“METHODS AND COMPOSITIONS FOR CANCER TREATMENT BY INHIBITION OF FBXO44” (Sanford Burnham Prebys Medical Discovery Institute, priority 2022, published 2023)",
  "tested_on": "4T1 tumors",
  "assay": "4T1 mammary tumors in syngeneic immunocompetent mice, F5446 plus anti-PD-1 antibody",
  "type": "in vivo, mouse",
  "experimental": "4T1 tumor experiment: 10^5 4T1 cells were inoculated into the mammary fat pads of 6- to 8-week-old female BALB/c mice (The Jackson Laboratory). Tumor size was measured twice weekly. After 22 days, mice were euthanized and portions of each tumor processed for flow cytometry and histological analysis. For antibody treatments, mice were administered 200 μg rat IgG2a isotype control (BioXCell no. BP0089) or anti-PD-1 (BioXCell no. BP0273) antibody via i.p. injection on days 15, 17, 19, 21 and 23 post-inoculation of 4T1 cells. For combination treatments, mice were administered vehicle (10% Cremophor EL in PBS) or F5446 at 10 mg/kg body weight via i.p. injection on days 12, 14, 16, 18, 20, and 22 post-inoculation of cells and administered 200 μg rat IgG2a isotype (control) or anti-PD-1 antibody via i.p. injection on days 15, 17, 19, 21, and 23 post-inoculation of 4T1 cells. Mouse survival was monitored with tumor volume exceeding 2000 mm^3, weight loss>20%, and decreasing behavioral conditions considered as endpoints.\nTo investigate the effects of pharmacologically targeting SUV39H1, F5446, on tumor growth and immunotherapy response, experiments using mouse model were performed as described in previous examples. Mice were also treated with F5446. Growth curve, survival curve, IHC, and qRT-PCR experiments were performed as described in previous examples.",
  "data": [
    {"smiles": "COC(=O)c1cc2c(n1S(=O)(=O)c1ccc(Cl)cc1)C(=O)C(=O)c1[nH]cc(C(=O)OCc3ccccc3)c1-2", "note": "[F5446]", "values": [
      {"measurement": "sensitivity of 4T1 tumors to anti-PD-1 therapy", "setting": "F5446 10 mg/kg i.p. combined with 200 μg anti-PD-1 antibody i.p. (FIGS. 12M-12O)", "result": "enhanced"},
      {"measurement": "mouse survival", "setting": "F5446 combined with anti-PD-1 therapy, 4T1 tumors (FIG. 12O)", "result": "increased"}
    ]}
  ]
}
